Assay results as given in JP2010202587A, “プロトンポンプ阻害剤を含有する組成物” (Pola Chemical Industries Inc, priority 2009, dated 2010).

Tests used:
tyrosinase [チロシナ−ゼ] [1] = biological target: T1, tyrosinase [チロシナ−ゼ] (Homo sapiens, UniProt P14679); assay: Direct tyrosinase inhibition (human melanocyte extract, L-DOPA substrate); format: biochemical; settings: human normal melanocyte extract, 37℃, 15 min, in words, from Table 2
T1 construct: 溶解液を15000rpm、5分間遠心し、上清を回収し細胞抽出液とした; host or cells: normal human melanocytes (detergent lysate supernatant)

[2] = tested on: human normal melanocytes [ヒト正常メラノサイト]; assay: Melanin production inhibition (2-[2-14C]thiouracil uptake, 4 days); format: cell-based; settings: in words, from Table 1
[3] = tested on: human normal melanocytes [ヒト正常メラノサイト]; assay: Detection of acidification in melanosomes (proton pump inhibition; DAMP fluorescence, confocal laser microscope); format: cell-based; settings: Figure 2; for Colour of overlaid photograph (DAMP + tyrosinase): yellow = melanosome acidified
tyrosinase [チロシナ−ゼ] [4] = biological target: T2, tyrosinase [チロシナ−ゼ] (Homo sapiens, UniProt P14679); settings: known from patent literature; cited from earlier work
T2 sequence (P14679 19-529): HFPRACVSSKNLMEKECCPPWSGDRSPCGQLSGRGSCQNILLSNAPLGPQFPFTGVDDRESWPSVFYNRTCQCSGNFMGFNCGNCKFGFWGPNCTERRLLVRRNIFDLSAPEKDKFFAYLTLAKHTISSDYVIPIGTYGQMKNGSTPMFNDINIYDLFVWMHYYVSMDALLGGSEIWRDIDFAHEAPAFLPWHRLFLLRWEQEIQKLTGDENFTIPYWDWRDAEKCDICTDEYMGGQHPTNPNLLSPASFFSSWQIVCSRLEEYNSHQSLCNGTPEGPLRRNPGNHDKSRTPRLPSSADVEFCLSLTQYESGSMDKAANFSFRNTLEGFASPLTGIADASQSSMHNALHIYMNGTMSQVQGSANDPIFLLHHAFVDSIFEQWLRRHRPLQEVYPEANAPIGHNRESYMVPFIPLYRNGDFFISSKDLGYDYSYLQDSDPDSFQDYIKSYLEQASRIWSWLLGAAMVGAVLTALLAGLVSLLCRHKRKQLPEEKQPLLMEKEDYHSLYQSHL

| Compound | Melanin production inhibition compared with the positive control (hydroquinone) [2] | Red staining showing the presence of tyrosinase ([3]; versus untreated control) | Colour of overlaid photograph (DAMP + tyrosinase) [3] | further results |
| --- | --- | --- | --- | --- |
| NC(=S)Nc1ccccc1 [フェニルチオウレア] | – | – | – | Direct tyrosinase inhibition (tyrosinase [チロシナ−ゼ] [1]): 顕著なチロシナ−ゼ直接阻害作用を示した |
| CC(C)=CCc1cc([C@@H]2CC(=O)c3c(O)c(CC=C(C)C)c(O)c(CC=C(C)C)c3O2)cc(O)c1O [化合物3, amorisin] | 陽性対照と同等乃至はそれ以上のメラニン産生抑制作用 | 同程度 | – | – |
| Euchrenone a3 [化合物2] | 優れたメラニン産生抑制作用 | – | 黄色より幾分オレンジ色がかっている | – |
| Oc1ccc(O)cc1 [ハイドロキノン, reference compound] | – | – | – | Melanin production inhibition [2]: 優れたメラニン産生抑制作用 |
| CCCCc1ccc(O)cc1O [4−n−ブチルレゾルシノ−ル] | – | – | – | Tyrosinase inhibitory activity (tyrosinase [チロシナ−ゼ] [4]): 強力なチロシナ−ゼ阻害活性 |
| Euchrenone a6 [化合物1] | 優れたメラニン産生抑制作用 | コントロ−ルと同程度 | 黄色を呈している | Green staining showing the degree of acidification (DAMP) ([3]; versus untreated control): 濃くなっており |
